Measurements published in US10597388B2, “Pyridazinone herbicides” (FMC CORPORATION, priority 2014, dated 2020).

Legend:
Format in all cases: in vivo
[1] = test system: blackgrass (Alopecurus myosuroides); test: Test A greenhouse herbicide test, postemergence
Procedure, shortened: (§1)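 Pot-grown plants (loam soil/sand blend), 2–10 cm tall at the one- to two-leaf stage, received postemergence sprays of formulated test chemical. After about 10 d in the greenhouse, injury was rated visually against untreated controls on a 0 (no effect) to 100 (complete control) scale.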

[2] = test system: galium (catchweed bedstraw, Galium aparine); test: Test A greenhouse herbicide test, postemergence
Procedure, shortened: as §1

[3] = test system: ryegrass, Italian (Italian ryegrass, Lolium multiflorum); test: Test A greenhouse herbicide test, pre- and postemergence
Procedure, shortened: (§2)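 Seeds in loam–sand blend received a preemergence directed soil spray; plants at 2–10 cm, one- to two-leaf stage, received postemergence sprays. Compounds in a non-phytotoxic solvent with surfactant. After about 10 d in a greenhouse, injury rated visually versus untreated controls on a 0–100 scale (100 = complete control).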

[4] = test system: wheat (Triticum aestivum); test: as above; settings: Postemergence
Procedure, shortened: as §2

[5] = test system: ragweed (common ragweed, Ambrosia elatior); test: as above
Procedure, shortened: as §2

[6] = test system: kochia (Kochia scoparia); test: as above
Procedure, shortened: as §2

[7] = test system: corn (Zea mays); test: as above; settings: Postemergence
Procedure, shortened: as §2

[8] = test system: foxtail, giant (giant foxtail, Setaria faberii); test: as above
Procedure, shortened: as §2

[9] = test system: galium (catchweed bedstraw, Galium aparine); test: Test C greenhouse herbicide test, pre- and postemergence
Procedure, shortened: (§3)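 Seeds sown in loam–sand blend treated preemergence; plants in peat-based medium sprayed postemergence at 2–18 cm (1- to 4-leaf stage); chemicals in non-phytotoxic solvent with surfactant. Greenhouse 13–15 d, then visual rating versus controls on 0–100 scale (0 no effect, 100 complete control).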

[10] = test system: ryegrass, Italian (Italian ryegrass, Lolium multiflorum); test: as above
Procedure, shortened: as §3

[11] = test system: ragweed (common ragweed, Ambrosia elatior); test: as above
Procedure, shortened: as §3

[12] = test system: soybean (Glycine max); test: as above
Procedure, shortened: as §3

[13] = 125 g ai/ha, 0 to 100 scale where 0 is no effect and 100 is complete control
[14] = 500 g ai/ha, visual rating after approx. 10 d, 0 to 100 scale (0 no effect, 100 complete control)
[15] = Postemergence, 125 g ai/ha, 0 to 100 scale where 0 is no effect and 100 is complete control
[16] = Postemergence, 500 g ai/ha, visual rating after approx. 10 d, 0 to 100 scale (0 no effect, 100 complete control)
[17] = Preemergence, 500 g ai/ha, 0 to 100 scale where 0 is no effect and 100 is complete control
[18] = Preemergence, 125 g ai/ha, 0 to 100 scale where 0 is no effect and 100 is complete control
[19] = Postemergence, 31 g ai/ha, scale 0 to 100 (0 no effect, 100 complete control)
[20] = Postemergence, 62 g ai/ha, 0 to 100 scale (0 no effect, 100 complete control)
[21] = Postemergence, 250 g ai/ha, scale 0 to 100, 0 no effect, 100 complete control, 13 to 15 d
[22] = Preemergence, 31 g ai/ha, scale 0 to 100, 0 is no effect, 100 is complete control
[23] = Preemergence, 62 g ai/ha, scale 0 to 100, 0 is no effect, 100 is complete control
[24] = Preemergence, 125 g ai/ha, scale 0 to 100, 0 is no effect, 100 is complete control
[25] = Preemergence, 250 g ai/ha, scale 0 to 100 (0 no effect, 100 complete control)
[26] = postemergence, 125 g ai/ha, scale 0 to 100, 0 no effect, 100 complete control
[27] = Postemergence, 16 g ai/ha, scale 0 to 100 (0 no effect, 100 complete control)
[28] = 125 g ai/ha, 0 to 100 scale, 0 no effect, 100 complete control
[29] = Postemergence, 125 g ai/ha, 0 to 100 scale, 0 no effect, 100 complete control
[30] = Preemergence, 125 g ai/ha, visual injury rating, 0 to 100 scale (0 no effect, 100 complete control), approx. 10 d

Structure (SMILES): COc1nn(C)c(=O)c(-c2c(C)ccc3ccccc23)c1OC(C)=O [Compound 138]
- Plant response rating, Blackgrass [1, 13]: 80
- Plant response rating, Blackgrass [1, 14]: 90
- Plant response rating, Galium [2, 13]: 100
- Plant response rating, Galium [2, 14]: 100
- Plant response rating, Ryegrass, Italian [3, 15]: 90
- Plant response rating, Ryegrass, Italian [3, 16]: 100
- Plant response rating, Ryegrass, Italian [3, 17]: 100
- Plant response rating, Wheat [4, 13]: 0
- Plant response rating, Wheat [4, 14]: 20
- Plant response rating, Ragweed [5, 15]: 100
- Plant response rating, Ragweed [5, 16]: 100
- Plant response rating, Ragweed [5, 17]: 100
- Plant response rating, Kochia [6, 15]: 100
- Plant response rating, Kochia [6, 16]: 100
- Kochia plant response rating [6, 18]: 40
- Plant response rating, Kochia [6, 17]: 100
- Plant response rating, Corn [7, 13]: 0
- Plant response rating, Corn [7, 14]: 20
- Plant response rating, Foxtail, Giant [8, 15]: 90
- Plant response rating, Foxtail, Giant [8, 16]: 100
- Foxtail, Giant plant response rating [8, 18]: 90
- Plant response rating, Foxtail, Giant [8, 17]: 100
- Plant response rating, Galium [9, 19]: 90
- Galium plant response rating [9, 20]: 90
- Plant response rating, Galium [9, 21]: 95
- Plant response rating, Galium [9, 22]: 95
- Plant response rating, Galium [9, 23]: 98
- Plant response rating, Galium [9, 24]: 98
- Galium plant response rating [9, 25]: 98
- Galium plant response rating [9, 26]: 95
- Plant response rating, Ryegrass, Italian [10, 19]: 5
- Ryegrass, Italian plant response rating [10, 20]: 5
- Plant response rating, Ryegrass, Italian [10, 21]: 70
- Plant response rating, Ryegrass, Italian [10, 22]: 55
- Plant response rating, Ryegrass, Italian [10, 23]: 90
- Plant response rating, Ryegrass, Italian [10, 24]: 90
- Ryegrass, Italian plant response rating [10, 25]: 95
- Ryegrass, Italian plant response rating [10, 26]: 10
- Plant response rating, Ragweed [11, 19]: 0
- Ragweed plant response rating [11, 20]: 0
- Plant response rating, Ragweed [11, 21]: 5
- Plant response rating, Ragweed [11, 22]: 95
- Plant response rating, Ragweed [11, 23]: 100
- Plant response rating, Ragweed [11, 24]: 98
- Ragweed plant response rating [11, 25]: 95
- Ragweed plant response rating [11, 26]: 5
- Plant response rating, Soybean [12, 19]: 10
- Soybean plant response rating [12, 20]: 10
- Plant response rating, Soybean [12, 21]: 25
- Plant response rating, Soybean [12, 22]: 0
- Plant response rating, Soybean [12, 23]: 0
- Plant response rating, Soybean [12, 24]: 20
- Soybean plant response rating [12, 25]: 15
- Soybean plant response rating [12, 26]: 10

Structure (SMILES): COC(=O)Oc1cnn(C)c(=O)c1-c1c(C)ccc2ccccc12 [Compound 143]
- Plant response rating, Blackgrass [1, 13]: 40
- Plant response rating, Blackgrass [1, 14]: 60
- Plant response rating, Galium [2, 13]: 90
- Plant response rating, Galium [2, 14]: 100
- Plant response rating, Ryegrass, Italian [3, 15]: 80
- Plant response rating, Ryegrass, Italian [3, 16]: 100
- Plant response rating, Ryegrass, Italian [3, 17]: 100
- Plant response rating, Wheat [4, 13]: 0
- Plant response rating, Wheat [4, 14]: 50
- Plant response rating, Ragweed [5, 15]: 70
- Plant response rating, Ragweed [5, 16]: 70
- Plant response rating, Ragweed [5, 17]: 90
- Plant response rating, Kochia [6, 15]: 70
- Plant response rating, Kochia [6, 16]: 90
- Kochia plant response rating [6, 18]: 10
- Plant response rating, Kochia [6, 17]: 70
- Plant response rating, Corn [7, 13]: 0
- Plant response rating, Corn [7, 14]: 20
- Plant response rating, Foxtail, Giant [8, 15]: 20
- Plant response rating, Foxtail, Giant [8, 16]: 60
- Foxtail, Giant plant response rating [8, 18]: 20
- Plant response rating, Foxtail, Giant [8, 17]: 70
- Plant response rating, Galium [9, 27]: 60
- Plant response rating, Galium [9, 19]: 65
- Galium plant response rating [9, 20]: 90
- Galium plant response rating [9, 26]: 90
- Plant response rating, Ryegrass, Italian [10, 27]: 45
- Plant response rating, Ryegrass, Italian [10, 19]: 55
- Ryegrass, Italian plant response rating [10, 20]: 60
- Ryegrass, Italian plant response rating [10, 26]: 90
- Plant response rating, Ragweed [11, 27]: 0
- Plant response rating, Ragweed [11, 19]: 0
- Ragweed plant response rating [11, 20]: 30
- Ragweed plant response rating [11, 26]: 70
- Plant response rating, Soybean [12, 27]: 0
- Plant response rating, Soybean [12, 19]: 0
- Soybean plant response rating [12, 20]: 15
- Soybean plant response rating [12, 26]: 20

Structure (SMILES): CC(=O)Oc1c(C)nn(C)c(=O)c1-c1c(C)cc(C)c2ccccc12 [Compound 153]
- Plant response rating, Blackgrass [1, 28]: 90
- Plant response rating, Blackgrass [1, 14]: 90
- Plant response rating, Galium [2, 28]: 100
- Plant response rating, Galium [2, 14]: 100
- Plant response rating, Ryegrass, Italian [3, 29]: 100
- Plant response rating, Ryegrass, Italian [3, 16]: 100
- Plant response rating, Ryegrass, Italian [3, 30]: 100
- Plant response rating, Ryegrass, Italian [3, 17]: 100
- Plant response rating, Wheat [4, 28]: 0
- Plant response rating, Wheat [4, 14]: 30
- Plant response rating, Ragweed [5, 29]: 80
- Plant response rating, Ragweed [5, 16]: 90
- Plant response rating, Ragweed [5, 30]: 80
- Plant response rating, Ragweed [5, 17]: 90
- Plant response rating, Kochia [6, 29]: 40
- Plant response rating, Kochia [6, 16]: 90
- Plant response rating, Kochia [6, 30]: 80
- Plant response rating, Kochia [6, 17]: 90
- Plant response rating, Corn [7, 28]: 0
- Plant response rating, Corn [7, 14]: 80
- Plant response rating, Foxtail, Giant [8, 29]: 90
- Plant response rating, Foxtail, Giant [8, 16]: 90
- Plant response rating, Foxtail, Giant [8, 30]: 100
- Plant response rating, Foxtail, Giant [8, 17]: 100
- Plant response rating, Galium [9, 19]: 95
- Galium plant response rating [9, 20]: 95
- Plant response rating, Galium [9, 21]: 98
- Plant response rating, Galium [9, 22]: 95
- Plant response rating, Galium [9, 23]: 98
- Plant response rating, Galium [9, 24]: 100
- Galium plant response rating [9, 25]: 100
- Galium plant response rating [9, 26]: 98
- Plant response rating, Ryegrass, Italian [10, 19]: 90
- Ryegrass, Italian plant response rating [10, 20]: 95
- Plant response rating, Ryegrass, Italian [10, 21]: 95
- Plant response rating, Ryegrass, Italian [10, 22]: 90
- Plant response rating, Ryegrass, Italian [10, 23]: 95
- Plant response rating, Ryegrass, Italian [10, 24]: 90
- Ryegrass, Italian plant response rating [10, 25]: 95
- Ryegrass, Italian plant response rating [10, 26]: 95
- Plant response rating, Ragweed [11, 19]: 70
- Ragweed plant response rating [11, 20]: 90
- Plant response rating, Ragweed [11, 21]: 90
- Plant response rating, Ragweed [11, 22]: 95
- Plant response rating, Ragweed [11, 23]: 95
- Plant response rating, Ragweed [11, 24]: 98
- Ragweed plant response rating [11, 25]: 100
- Ragweed plant response rating [11, 26]: 95
- Plant response rating, Soybean [12, 19]: 5
- Soybean plant response rating [12, 20]: 10
- Plant response rating, Soybean [12, 21]: 5
- Plant response rating, Soybean [12, 22]: 20
- Plant response rating, Soybean [12, 23]: 10
- Plant response rating, Soybean [12, 24]: 20
- Soybean plant response rating [12, 25]: 45
- Soybean plant response rating [12, 26]: 10
